Patent US6350907B1, “Matrix metalloprotease inhibitors” (Pfizer Inc, priority 1998, dated 2002)
One block for each molecule: values may come before it.

Legend:
MMP-2 = biological target: T1, MMP-2 (Homo sapiens, UniProt P08253); experiment: Inhibition of MMP-2, cleavage of fluorogenic peptide; type: biochemical; details: x = 2; read-out: MMP-2 inhibitor IC50
T1 construct: Catalytic domain MMP-2, MMP-3 and MMP-9 were prepared at Pfizer Central Research; made in house
Experimental: (§1) The ability of compounds to inhibit the cleavage of fluorogenic peptides by MMPs 1, 2, 3, 9 12, 13 and 14 is described below.
(§2) The assays for MMPs 2, 3, 9, and 14 are based upon the original protocol described by Knight et al. (Fed.Euro.Biochem.Soc., 296 (3), 263-266; 1992) with the slight modifications given below.
(§3) Catalytic domain MMP-2, MMP-3 and MMP-9 were prepared at Pfizer Central Research. […] MMP-3 was activated by the addition of 2 mM APMA, followed by incubation for 3 hours at 37° C. The enzymes were then diluted in Tris-HCl assay buffer (100 mM Tris, 100 mM NaCl, 10 mM CaCl2 and 0.16% Brij 35, pH 7.5), to a concentration of 10 nM. The final concentration of enzyme used in the assays was 1 nM.
(§4) The fluorogenic substrate used in this screen was Mca-Arg-Pro-Lys-Pro-Tyr-Ala-Nva-Trp-Met-Lys(Dnp)-NH2 (Bachem Ltd, Essex, UK) as originally described by Nagase et al (J.Biol.Chem., 269(33), 20952-20957, 1994). […] The final substrate concentration used in the assay was 5 μM. […]
(§5) Test compounds were dissolved in dimethyl sulphoxide and diluted with test buffer solution (as above) so that no more than 1% dimethyl sulphoxide was present. […] Plates were then incubated for 1 hour at 37° C. prior to determination of fluorescence using a fluorimeter (Fluostar; BMG LabTechnologies, Aylesbury, UK) at an excitation wavelength of 328 nm and emission wavelength of 393 nm.

MMP-3 = biological target: T2, MMP-3 (Homo sapiens, UniProt P08254); experiment: Inhibition of MMP-3, cleavage of fluorogenic peptide; type: biochemical
T2 construct: Catalytic domain MMP-2, MMP-3 and MMP-9 were prepared at Pfizer Central Research; made in house
T2 sequence (P08254 100-272 limits assumed): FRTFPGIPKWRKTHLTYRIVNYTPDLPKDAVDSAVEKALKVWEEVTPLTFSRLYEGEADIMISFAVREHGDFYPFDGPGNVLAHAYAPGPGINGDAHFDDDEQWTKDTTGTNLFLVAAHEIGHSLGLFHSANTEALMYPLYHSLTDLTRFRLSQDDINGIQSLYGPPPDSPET
Experimental: as §1, §3
The final substrate concentration used in the assay was 5 μM.
(§6) (iii) Determination of Enzyme Inhibition
Test compounds were dissolved in dimethyl sulphoxide and diluted with test buffer solution (as above) so that no more than 1% dimethyl sulphoxide was present. Test compound and enzyme were added to each well of a 96 well plate and allowed to equilibrate for 15 minutes at 37° C. in an orbital shaker prior to the addition of substrate.

MMP-12 = biological target: T3, MMP-12 (Homo sapiens, UniProt P39900); experiment: Inhibition of MMP-12 (Human Macrophage Elastase), cleavage of fluorogenic peptide; type: biochemical; details: x = 12; read-out: MMP-12 inhibitor IC50
T3 construct: Catalytic domain MMP-12 (200 μg/ml) was used
T3 sequence (P39900 106-263 limits assumed): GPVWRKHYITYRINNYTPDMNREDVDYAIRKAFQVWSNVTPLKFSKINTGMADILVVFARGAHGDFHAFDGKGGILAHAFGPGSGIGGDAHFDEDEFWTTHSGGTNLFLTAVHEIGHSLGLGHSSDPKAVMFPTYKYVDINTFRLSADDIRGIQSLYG
Experimental: as §1
Inhibition of MMP-12 (Human Macrophage Elastase)
Catalytic domain MMP-12 (200 μg/ml) was used. MMP-12 was diluted in Tris-HCl assay buffer (50 mM Tris, 200 mM NaCl, 5 mM CaCl2, 20 μM ZnSO4, 0.02% Brij 35) pH 7.4 to 240 ng/ml. The final concentration of enzyme used in the assay was 60 ng/ml.
The fluorogenic substrate used in this assay was DNP-Pro-Cha-Gly-Cys(Me)-His-Ala-Lys(NMA)-NH2. The final substrate concentration used in the assay was 10 μM.
as §6
Test compounds were dissolved in dimethyl sulphoxide and diluted with assay buffer so that no more than 1% dimethyl sulphoxide was present. Test compound and enzyme were added to each well of a 96 well plate and allowed to equilibrate for 15 minutes at room temperature in an orbital shaker prior to the addition of substrate. Plates were then incubated for 2 hours at room temperature prior to the determination of fluorescence (substrate cleavage) using a fluorimeter at an excitation wavelength of 360 nm and emission wavelength of 460 nm.

[1] = system: endothelial cell invasion of basement membrane; details: thereby inhibiting angiogenesis; cited from earlier work
MMP-9 = biological target: T4, MMP-9 (Homo sapiens, UniProt P14780); experiment: Inhibition of MMP-9, cleavage of fluorogenic peptide; type: biochemical; details: x = 9; read-out: MMP-9 inhibitor IC50
T4 construct: Catalytic domain MMP-2, MMP-3 and MMP-9 were prepared at Pfizer Central Research; made in house
T4 sequence (P14780 107-444 limits assumed): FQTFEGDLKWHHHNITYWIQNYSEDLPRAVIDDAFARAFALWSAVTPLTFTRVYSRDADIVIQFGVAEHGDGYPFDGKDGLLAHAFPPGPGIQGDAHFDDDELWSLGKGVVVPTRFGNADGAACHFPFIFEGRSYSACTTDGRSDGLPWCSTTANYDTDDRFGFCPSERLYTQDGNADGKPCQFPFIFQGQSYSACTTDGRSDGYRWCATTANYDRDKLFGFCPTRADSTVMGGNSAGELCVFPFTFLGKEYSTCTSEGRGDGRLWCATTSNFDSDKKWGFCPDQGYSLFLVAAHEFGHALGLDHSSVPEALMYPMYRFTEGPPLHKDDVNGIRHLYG
Experimental: as §1, §2, §3, §4, §5

MMP-14 = biological target: T5, MMP-14 (Homo sapiens, UniProt P50281); experiment: Inhibition of MMP-14, cleavage of fluorogenic peptide; type: biochemical; details: x = 14; read-out: MMP-14 inhibitor IC50
T5 construct: Catalytic domain MMP-14 was purchased from Prof Tschesche; purchased Prof Tschesche, Department of Biochemistry, Faculty of Chemistry, University of Bielefeld, Germany
Experimental: as §1, §2
Test compounds were dissolved in dimethyl sulphoxide and diluted with test buffer solution (as above) so that no more than 1% dimethyl sulphoxide was present. Test compound and enzyme were added to each well of a 96 well plate and allowed to equilibrate for 15 minutes at 37° C. in an orbital shaker prior to the addition of substrate. Plates were then incubated for 1 hour at 37° C. prior to determination of fluorescence using a fluorimeter (Fluostar; BMG LabTechnologies, Aylesbury, UK) at an excitation wavelength of 328 nm and emission wavelength of 393 nm.
Catalytic domain MMP-14 was purchased from Prof Tschesche, Department of Biochemistry, Faculty of Chemistry, University of Bielefeld, Germany. A 10 μM enzyme stock solution was activated for 20 minutes at 25° C. following the addition of 5 μg/ml of trypsin (Sigma, Dorset, UK). […]

MMP-13 = biological target: T6, MMP-13 (Homo sapiens, UniProt P45452); experiment: Inhibition of MMP-13, cleavage of fluorogenic peptide; type: biochemical; details: x = 13; read-out: MMP-13 inhibitor IC50
T6 construct: purchased PanVera Corporation (Madison, Wis.)
Experimental: as §1
Human recombinant MMP-13 was prepared by PanVera Corporation (Madison, Wis.) and characterized at Pfizer (Groton, Conn.). A 1.9 mg/ml stock was activated with 2 mM APMA for 2 hours at 37° C. MMP-13 was then diluted in assay buffer (50 mM Tris, 200 mM NaCl, 5 mM CaCl2, 20 μM ZnCl2 and 0.02% Brij 35) at pH 7.5 to a concentration of 5.3 nM. The final concentration of enzyme used in the assay was 1.3 nM.
The fluorogenic substrate used in this screen was Dnp-Pro-Cha-Gly-Cys(Me)-His-Ala-Lys(NMA)-NH2. The final substrate concentration used in the assay was 10 μM.
as §6
Test compounds were dissolved in dimethyl sulphoxide and diluted with assay buffer so that no more than 1% dimethyl sulphoxide was present. Test compound and enzyme were added to each well of a 96 well plate. The addition of substrate to each well initiated the reaction. Fluorescence intensity was determined on a 96 well plate fluorometer (Cytofluor II; PerSeptive Biosystems, Inc, Framingham, Mass.) at an excitation wavelength of 360 nm and emission wavelength of 460 nm.

keratinocyte migration = details: in vitro; cited from earlier work

T1 sequence (P08253 110-446 limits assumed): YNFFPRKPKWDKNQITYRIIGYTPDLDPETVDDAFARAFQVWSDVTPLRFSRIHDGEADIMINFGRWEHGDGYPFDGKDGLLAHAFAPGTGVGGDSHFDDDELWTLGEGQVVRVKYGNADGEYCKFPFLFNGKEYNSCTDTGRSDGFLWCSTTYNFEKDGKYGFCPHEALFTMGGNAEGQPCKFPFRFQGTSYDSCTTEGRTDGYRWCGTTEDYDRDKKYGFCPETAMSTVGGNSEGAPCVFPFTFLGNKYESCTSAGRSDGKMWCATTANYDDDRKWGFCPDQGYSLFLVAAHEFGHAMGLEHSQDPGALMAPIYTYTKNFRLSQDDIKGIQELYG

IC50 (MMP-2): 10.8 µM | 3/2sel: Selectivity for MMP-3 over MMP-2 (MMP-3): 107 | IC50 (MMP-3): 0.101 µM | IC50 (MMP-12): 0.085 µM
SMILES: Cc1cc(CCC[C@H](CC(=O)O)C(=O)N[C@H](C(=O)N[C@H](C)c2ccccc2)C(C)(C)C)ccc1-c1ccccc1 [Example 1, (3R)-3-({[(1S)-2,2-dimethyl-1-({[(1R)-1-phenylethyl]amino}carbonyl)propyl]amino}carbonyl)-6-[(3-methyl-4-phenyl)phenyl]hexanoic acid]

SMILES: CNC(=O)[C@H](Cc1ccccc1)NC(=O)[C@H](CC(C)C)[C@H](CSc1cccs1)C(=O)NO [BB94, (2S,3R)-5-methyl-3-{[(1S)-1-(methylcarbamoyl)-2-phenylethyl]carbamoyl}-2-[(2-thienylthio)methyl]hexanohydroxamic acid]
Inhibition of endothelial cell invasion of basement membrane [1]: inhibits endothelial cell invasion of basement membrane

IC50 (MMP-9): 1.91 µM | IC50 (MMP-14): 5.65 µM | IC50 (MMP-13): 0.13 µM
SMILES: C[C@@H](NC(=O)[C@@H](NC(=O)[C@H](CCCc1ccc(-c2ccccc2)c(Cl)c1)CC(=O)NO)C(C)(C)C)c1ccccc1 [Example 2, (2R)-2-{3-[3-Chloro-(4-phenyl)phenyl]propyl}-N1-[(1S)-2,2-dimethyl-1-({[(1R)-1-phenylethyl]amino}carbonyl)propyl]-(N4-hydroxy)butanediamide.]

SMILES: CNC(=O)[C@H](Cc1ccc(OC)cc1)NC(=O)[C@@H](CC(=O)NO)CC(C)C [SC44463]
Inhibition of keratinocyte migration on a collagen type I matrix (keratinocyte migration): completely inhibited
